Results on 29 compounds are retold here after patent US12295396B2, “Antagonists of T2R54 and compositions and uses thereof” (Firmenich Incorporated, priority 2018, dated 2025).

Bounds are passed on as bounds.

The test concerns the target T1, hT2R54 (Homo sapiens, UniProt P59534).
T1 construct: expressed in transfected cells; it overexpresses a promiscuous G protein
T1 sequence (P59534 1-338): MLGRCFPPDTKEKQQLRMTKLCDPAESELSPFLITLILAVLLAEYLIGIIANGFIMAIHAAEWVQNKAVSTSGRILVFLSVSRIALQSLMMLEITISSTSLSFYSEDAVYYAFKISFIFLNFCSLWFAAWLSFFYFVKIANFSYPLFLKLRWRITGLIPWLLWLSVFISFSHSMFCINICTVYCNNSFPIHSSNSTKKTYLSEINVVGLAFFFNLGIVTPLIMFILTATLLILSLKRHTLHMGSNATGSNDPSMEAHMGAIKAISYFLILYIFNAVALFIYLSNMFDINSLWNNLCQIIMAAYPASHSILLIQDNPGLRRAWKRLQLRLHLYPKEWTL
Put plainly: Cell-based assay for measuring hT2R54 inhibition (FLIPR calcium, Fluo4AM, acetaminophen as bitter agonist). The conditions noted are these: Table 8; read-out: hT2R54 IC50. The procedure, abridged:
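The readout was FLIPR calcium (Fluo4AM, 10 s baseline, 3 min post-addition) in cells stably carrying hT2R54 plus a promiscuous G protein, with host cells lacking hT2R54 as counter-control. Acetaminophen concentration series were tested with and without set test-compound levels. Half-maximal block of the agonist response gave the EC50/IC50.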
On to `CC(=O)c1cc2c(cc1NC(=O)CC1CCN(C(=O)c3nc(C)c[nH]3)CC1)OCO2` [compound 465], for which the IC50 (in general, the concentration that inhibits the measured activity by half) was found to be 46 nM.
The result for `CC(=O)c1cc2c(cc1NC(=O)CC1CCN(C(=O)c3cc(C)on3)CC1)OCO2` [compound 466] reads 700 nM.
The result for `CC(=O)c1cc2c(cc1NC(=O)CC1CCN(C(=O)c3ccc(C)o3)CC1)OCO2` [compound 467] reads 58 nM; that for `COCc1ccc(C(=O)N2CCC(CC(=O)Nc3cc4c(cc3C(C)=O)OCO4)CC2)o1` [compound 468], 70 nM.
With `COCC(=O)N1CCC(CC(=O)Nc2cc3c(cc2C(C)=O)OCO3)CC1` [compound 469], the half-inhibitory concentration (IC50) stood at 500 nM.
To `COCCOCC(=O)N1CCC(CC(=O)Nc2cc3c(cc2C(C)=O)OCO3)CC1` [compound 470] belongs 700 nM; to `CC(=O)c1cc2c(cc1NC(=O)CC1CCN(C(=O)[C@H]3CCCO3)CC1)OCO2` [compound 471], 300 nM.
To `CC(=O)c1cc2c(cc1NC(=O)CC1CCN(C(=O)[C@@H]3CCCO3)CC1)OCO2` [compound 472] belongs 300 nM; to `CC(=O)c1cc2c(cc1NC(=O)CC1CCN(C(=O)C3CCN(C)C3)CC1)OCO2` (centres unmarked) [compound 473], over 50000 nM; to `CC(=O)c1cc2c(cc1NC(=O)CC1CCN(C(=O)[C@H]3CCC(=O)O3)CC1)OCO2` [compound 474], 130 nM.
The result for `CC(=O)c1cc2c(cc1NC(=O)CC1CCN(C(=O)CC3CCCO3)CC1)OCCO2` (centres unmarked) [compound 475] reads 300 nM; that for `CC(=O)c1cc2c(cc1NC(=O)CC1CCN(C(=O)CC3CCCO3)CC1)OCO2` (centres unmarked) [compound 476], 300 nM; that for `CC(=O)c1cc2c(cc1NC(=O)CC1CCN(C(=O)CC3CCOC3)CC1)OCO2` (centres unmarked) [compound 477], 400 nM.
Take `CC(=O)c1cc2c(cc1NC(=O)CC1CCN(C(=O)CN3CCCC3)CC1)OCO2` [compound 479]: the IC50 was over 10000 nM.
The result for `COC(=O)c1cc2c(cc1NC(=O)CC1CCCN(C(C)=O)C1)OCO2` (centres unmarked) [compound 480] reads 1400 nM; that for `COC(=O)c1cc2c(cc1NC(=O)CC1CCCN(C(=O)C3CCCO3)C1)OCO2` (centres unmarked) [compound 481], 2200 nM.
The result for `COC(=O)c1cc2c(cc1NC(=O)CC1CCN(C(=O)C3CCCO3)CC1)OCO2` (centres unmarked) [compound 482] reads 1400 nM; that for `COCc1ccc(C(=O)N2CCC(CC(=O)Nc3cc4c(cc3C(=O)OC)OCO4)CC2)cc1` [compound 483], 640 nM; that for `COC(=O)c1cc2c(cc1NC(=O)CC1CCN(C(=O)c3ccncc3)CC1)OCO2` [compound 484], 460 nM.
Consider `CC(=O)c1cc2c(cc1NC(=O)CC1CCN(C(=O)c3cccnc3)CC1)OCCO2` [compound 485], for which the IC50 is 240 nM.
The result for `COCc1cccc(C(=O)N2CCC(CC(=O)Nc3cc4c(cc3C(C)=O)OCCO4)CC2)c1` [compound 486] reads 188 nM; that for `CC(=O)c1cc2c(cc1NC(=O)CC1CCN(C(=O)c3ccc(CO)o3)CC1)OCCO2` [compound 487], 250 nM.
On to `COCc1ccc(C(=O)N2CCC(CC(=O)Nc3cc4c(cc3C(C)=O)OCCO4)CC2)s1` [compound 488], for which the IC50 amounted to 15 nM.
The result for `COCc1ccc(C(=O)N2CCC(CC(=O)Nc3cc4c(cc3C(C)=O)OCCO4)CC2)o1` [compound 489] reads 150 nM.
With `CC(=O)c1cc2c(cc1NC(=O)CC1CCN(C(=O)c3cc(CO)on3)CC1)OCCO2` [compound 490], the half-inhibitory concentration (IC50) was found to be 160 nM.
On to `COCc1cc(C(=O)N2CCC(CC(=O)Nc3cc4c(cc3C(C)=O)OCCO4)CC2)no1` [compound 491], for which the IC50 stood at 160 nM.
Take `CC(=O)c1cc2c(cc1NC(=O)CC1CCN(C(=O)C3CCCO3)CC1)OCCO2` (centres unmarked) [compound 493]: the IC50 is 450 nM.
To `CC(=O)c1cc2c(cc1NC(=O)CC1CCN(C(=O)[C@@H]3CCCO3)CC1)OCCO2` [compound 494] belongs 300 nM; to `CC(=O)c1cc2c(cc1NC(=O)CC1CCN(C(=O)[C@H]3CCCO3)CC1)OCCO2` [compound 495], 200 nM.
